How the values were obtained:
[1] = system: tumor-infiltrating lymphocytes; conditions: in the presence of IL-21; after 2 weeks of culture; cited from earlier work
γδ T cells = assay: δ1 and δ2 populations by flow cytometry; assay type: cell-based, human; conditions: Day 21; culture without vs with zoledronate (5 μM)
From the text: Cells were harvested on Day 21 and analyzed by flow cytometry to determine δ1 and δ2 populations.
The presence of δ1 cells as a percentage of live cells is shown for two donors in FIG. 18A & 18B.

Q: With `O=C(CCCCCCC(=O)Nc1ccccc1)NO` [SAHA, suberoylanilide hydroxamic acid] as the compound, how does the “Tcm αβ T cells (CD28+CD62L+)” value [1] read?
A: increase Tcm αβ T cells

Q: For `O=P(O)(O)C(O)(Cn1ccnc1)P(=O)(O)O` [zoledronate], which “δ1 and δ2 populations” value (γδ T cells) is on record?
A: lack of zoledronate in the culture results in a polyclonal population
